Active and inactive are the calls of the source.
How the values were obtained:
Insulin-degrading enzyme [1] = biological target: T1, Insulin-degrading enzyme (Homo sapiens, UniProt P14735); experiment: activators of recombinant IDE enzyme, dose response, counter-screen for IDE activator project, biochemical, fluorescence polarization (AID 588681)
T1 sequence (P14735 whole entry): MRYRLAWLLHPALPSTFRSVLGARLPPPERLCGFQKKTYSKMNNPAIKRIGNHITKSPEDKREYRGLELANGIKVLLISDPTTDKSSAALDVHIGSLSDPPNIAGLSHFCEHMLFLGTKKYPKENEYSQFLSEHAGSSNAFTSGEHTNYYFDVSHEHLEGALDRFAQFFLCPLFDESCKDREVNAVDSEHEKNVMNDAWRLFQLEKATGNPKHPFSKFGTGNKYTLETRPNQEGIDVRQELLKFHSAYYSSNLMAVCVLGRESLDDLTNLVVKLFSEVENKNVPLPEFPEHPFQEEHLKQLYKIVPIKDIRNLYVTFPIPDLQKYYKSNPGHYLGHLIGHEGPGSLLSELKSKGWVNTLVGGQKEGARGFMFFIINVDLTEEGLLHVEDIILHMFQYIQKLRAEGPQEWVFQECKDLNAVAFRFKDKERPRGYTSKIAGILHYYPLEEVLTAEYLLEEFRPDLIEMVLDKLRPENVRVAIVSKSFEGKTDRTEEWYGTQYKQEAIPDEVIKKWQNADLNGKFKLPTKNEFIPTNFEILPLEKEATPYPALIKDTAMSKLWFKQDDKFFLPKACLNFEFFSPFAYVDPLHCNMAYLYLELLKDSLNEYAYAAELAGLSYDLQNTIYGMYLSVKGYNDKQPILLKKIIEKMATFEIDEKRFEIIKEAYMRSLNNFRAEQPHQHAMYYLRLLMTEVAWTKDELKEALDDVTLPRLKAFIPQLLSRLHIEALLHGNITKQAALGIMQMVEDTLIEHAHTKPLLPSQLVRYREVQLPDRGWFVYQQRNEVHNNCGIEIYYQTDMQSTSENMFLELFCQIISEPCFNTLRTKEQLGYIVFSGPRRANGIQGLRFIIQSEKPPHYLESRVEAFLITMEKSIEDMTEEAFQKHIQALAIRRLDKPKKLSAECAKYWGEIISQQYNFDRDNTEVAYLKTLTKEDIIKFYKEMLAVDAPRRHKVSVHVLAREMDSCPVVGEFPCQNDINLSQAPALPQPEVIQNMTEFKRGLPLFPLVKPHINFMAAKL

[2] = biological target: Delta-type opioid receptor (Homo sapiens, UniProt P41143); experiment: Counterscreen for agonists of heterodimerization of the mu 1 (OPRM1) and delta 1 (OPRD1) opioid receptors: Luminescence-based cell-based high throughput dose response assay to identify agonists of OPRD1 homodimerization. [Related pubchem assays (depositor defined):AID504326, AID504355, AID504692, AID504904, AID504905]; assay type: functional
Chain of Delta-type opioid receptor (P41143 whole entry): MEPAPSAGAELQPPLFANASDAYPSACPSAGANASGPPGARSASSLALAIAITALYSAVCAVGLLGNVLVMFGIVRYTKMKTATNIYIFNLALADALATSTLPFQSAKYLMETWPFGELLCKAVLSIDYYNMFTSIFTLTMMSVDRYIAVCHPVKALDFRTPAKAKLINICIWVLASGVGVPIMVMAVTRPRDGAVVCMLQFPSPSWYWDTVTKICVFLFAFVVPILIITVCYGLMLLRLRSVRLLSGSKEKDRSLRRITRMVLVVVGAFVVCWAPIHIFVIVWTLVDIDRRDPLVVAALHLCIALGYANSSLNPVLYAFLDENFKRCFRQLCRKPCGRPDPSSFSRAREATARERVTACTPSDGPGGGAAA

Insulin-degrading enzyme [3] = biological target: T1, Insulin-degrading enzyme; experiment: activators of endogenous IDE in HEK cells, dose response, cell-based, fluorescence polarization (AID 588439); assay type: functional
Bcl-2-related protein A1 = biological target: T2, Bcl-2-related protein A1 (Mus musculus, UniProt Q07440); assay type: functional;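 also: confirmatory dose–response counterscreen on Bfl-1, used to check hits from a UBC13 polyubiquitin inhibitor campaign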
T2 sequence (Q07440 whole entry): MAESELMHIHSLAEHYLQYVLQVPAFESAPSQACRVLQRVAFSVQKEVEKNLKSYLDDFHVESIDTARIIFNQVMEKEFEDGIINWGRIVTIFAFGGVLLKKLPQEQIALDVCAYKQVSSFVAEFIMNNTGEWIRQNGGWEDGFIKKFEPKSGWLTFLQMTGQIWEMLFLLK

[4] = biological target: T3, Apoptotic protease-activating factor 1 (Homo sapiens, UniProt O14727); assay type: functional
T3 sequence (O14727 whole entry): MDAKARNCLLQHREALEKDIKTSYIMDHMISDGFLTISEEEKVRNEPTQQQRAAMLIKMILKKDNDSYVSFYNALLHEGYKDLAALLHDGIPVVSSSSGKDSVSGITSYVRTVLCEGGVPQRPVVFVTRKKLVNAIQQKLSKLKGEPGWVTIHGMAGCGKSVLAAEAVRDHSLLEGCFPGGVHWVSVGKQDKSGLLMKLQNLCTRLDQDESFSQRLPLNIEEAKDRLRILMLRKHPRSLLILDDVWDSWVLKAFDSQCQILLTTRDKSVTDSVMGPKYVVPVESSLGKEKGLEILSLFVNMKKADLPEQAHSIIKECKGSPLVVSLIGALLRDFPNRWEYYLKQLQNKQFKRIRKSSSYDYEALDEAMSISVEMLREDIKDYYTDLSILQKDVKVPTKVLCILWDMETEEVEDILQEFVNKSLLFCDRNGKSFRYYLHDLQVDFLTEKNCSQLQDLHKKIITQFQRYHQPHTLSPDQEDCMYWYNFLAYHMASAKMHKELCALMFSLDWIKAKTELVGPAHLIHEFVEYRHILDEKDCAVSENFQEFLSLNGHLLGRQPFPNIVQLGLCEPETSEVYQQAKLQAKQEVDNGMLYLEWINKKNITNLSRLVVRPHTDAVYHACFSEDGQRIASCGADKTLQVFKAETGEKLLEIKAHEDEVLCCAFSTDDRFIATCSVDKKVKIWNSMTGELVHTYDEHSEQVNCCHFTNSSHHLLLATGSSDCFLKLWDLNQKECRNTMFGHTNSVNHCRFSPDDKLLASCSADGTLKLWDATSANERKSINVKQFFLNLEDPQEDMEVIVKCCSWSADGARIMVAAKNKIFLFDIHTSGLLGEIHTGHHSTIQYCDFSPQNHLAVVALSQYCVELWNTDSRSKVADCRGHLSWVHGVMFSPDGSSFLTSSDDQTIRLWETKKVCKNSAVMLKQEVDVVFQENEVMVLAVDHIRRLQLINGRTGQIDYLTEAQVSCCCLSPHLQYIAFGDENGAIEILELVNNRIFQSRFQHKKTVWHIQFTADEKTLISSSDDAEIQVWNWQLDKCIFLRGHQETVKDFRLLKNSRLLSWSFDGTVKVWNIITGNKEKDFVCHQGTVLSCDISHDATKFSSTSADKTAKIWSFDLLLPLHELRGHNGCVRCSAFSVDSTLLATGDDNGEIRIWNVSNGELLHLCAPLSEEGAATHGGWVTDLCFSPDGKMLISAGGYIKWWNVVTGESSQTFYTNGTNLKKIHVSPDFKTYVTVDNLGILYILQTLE

[5] = biological target: T4, Ubiquitin-conjugating enzyme E2 N (Homo sapiens, UniProt P61088); assay type: functional;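 also: Dose-response confirmation in a TR-FRET assay detecting UBC13-driven polyubiquitin chain formation, inhibition measured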
T4 sequence (P61088 whole entry): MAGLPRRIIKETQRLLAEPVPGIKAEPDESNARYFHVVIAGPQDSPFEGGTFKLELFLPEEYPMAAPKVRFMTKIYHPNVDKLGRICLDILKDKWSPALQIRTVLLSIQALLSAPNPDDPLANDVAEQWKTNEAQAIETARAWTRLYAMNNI

[6] = biological target: T5, Small ubiquitin-related modifier 1 (Homo sapiens, UniProt P63165); experiment: inhibitors of SUMO1 peptide binding, dose response, biochemical, fluorescence polarization, uHTS hits (AID 624382); assay type: functional; settings: read-out: IC50_Mean
T5 sequence (P63165 whole entry): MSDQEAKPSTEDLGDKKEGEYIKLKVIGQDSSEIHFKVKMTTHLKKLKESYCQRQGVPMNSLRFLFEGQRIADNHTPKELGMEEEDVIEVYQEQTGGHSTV

[7] = biological target: Intestinal-type alkaline phosphatase (Homo sapiens, UniProt P09923); experiment: inhibition of human intestinal alkaline phosphatase – biochemical, dose response (AID 488876); assay type: functional
Chain of Intestinal-type alkaline phosphatase (P09923 whole entry): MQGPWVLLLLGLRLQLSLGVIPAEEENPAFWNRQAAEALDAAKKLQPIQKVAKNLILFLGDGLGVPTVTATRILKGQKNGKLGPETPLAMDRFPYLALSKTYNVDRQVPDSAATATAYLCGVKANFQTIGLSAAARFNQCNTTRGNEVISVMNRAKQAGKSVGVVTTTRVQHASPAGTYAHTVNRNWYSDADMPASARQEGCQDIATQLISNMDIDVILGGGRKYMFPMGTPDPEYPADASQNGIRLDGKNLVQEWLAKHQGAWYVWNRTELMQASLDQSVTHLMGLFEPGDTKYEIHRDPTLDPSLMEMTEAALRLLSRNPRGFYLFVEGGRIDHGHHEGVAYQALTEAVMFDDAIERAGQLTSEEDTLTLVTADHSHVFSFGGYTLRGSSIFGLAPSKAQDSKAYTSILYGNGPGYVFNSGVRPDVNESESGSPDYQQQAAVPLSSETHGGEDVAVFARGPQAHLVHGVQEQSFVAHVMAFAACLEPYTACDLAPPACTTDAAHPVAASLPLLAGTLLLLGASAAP

[8] = biological target: T5, Small ubiquitin-related modifier 1; experiment: inhibitors of SUMO1 partner interactions, dose response, biochemical, FRET (AID 624383); assay type: functional; settings: read-out: IC50_Mean

For `Clc1ccc(C(c2ccc(Cl)cc2)n2cc[n+](CC(OCc3ccc(Cl)cc3Cl)c3ccc(Cl)cc3Cl)c2)cc1` (centres undefined) [CALMIDAZOLIUM CHLORIDE], the EC50 (Insulin-degrading enzyme [1]) was > 54.7 µM (inactive), the EC50 [2] was > 92.5 µM (inactive) and the EC50 (Insulin-degrading enzyme [3]) was > 2.03 µM (active). For the same molecule, the IC50 (Bcl-2-related protein A1) was 6.23 µM (active), the IC50 [4] was 12.7 µM (active) and the IC50 [5] was 10.9 µM (active). For the same molecule, the IC50 [6] was > 66.6 µM (inactive), the IC50 [7] was > 100 µM (inactive) and the IC50 [8] was 5.89 µM (active).

Source: ChEMBL document CHEMBL1201862, “PubChem BioAssay data set” (2004)
